Laboratory results taken from PubChem BioAssay (NCI).
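How tested: cells in 96-well plates exposed to compound for 48 hours at five concentrations. GI50 marks 50% less growth. TGI marks complete inhibition of growth.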

How the values were obtained:
Assay in all cases: inhibition of tumour cell growth, NCI panel, 48 h
SF-268 CNS = system: SF-268 CNS
HT29 colon = system: HT29 colon
NCI-H226 lung = system: NCI-H226 lung
SW-620 colon = system: SW-620 colon
SF-295 CNS = system: SF-295 CNS
OVCAR-5 ovarian = system: OVCAR-5 ovarian
SK-MEL-28 melanoma = system: SK-MEL-28 melanoma
RXF 393 renal = system: RXF 393 renal
NCI/ADR-RES ovarian = system: NCI/ADR-RES ovarian
OVCAR-3 ovarian = system: OVCAR-3 ovarian

SMILES | GI50 (SF-268 CNS) [µM] | TGI (SF-268 CNS) [µM] | GI50 (HT29 colon) [µM] | TGI (HT29 colon) [µM] | GI50 (NCI-H226 lung) [µM] | TGI (NCI-H226 lung) [µM] | GI50 (SW-620 colon) [µM] | TGI (SW-620 colon) [µM] | GI50 (SF-295 CNS) [µM] | TGI (SF-295 CNS) [µM] | GI50 (OVCAR-5 ovarian) [µM] | TGI (OVCAR-5 ovarian) [µM] | GI50 (SK-MEL-28 melanoma) [µM] | TGI (SK-MEL-28 melanoma) [µM] | GI50 (RXF 393 renal) [µM] | TGI (RXF 393 renal) [µM] | GI50 (NCI/ADR-RES ovarian) [µM] | TGI (NCI/ADR-RES ovarian) [µM] | GI50 (OVCAR-3 ovarian) [µM] | TGI (OVCAR-3 ovarian) [µM]
CCN(CC)CCNC(=O)c1cn2ncnc(Oc3ccc(NC(=O)Nc4ccc(Cl)c(C(F)(F)F)c4)c(F)c3)c2c1C | 1.92 | 3.74 | 0.834 | 2.45 | 2.05 | 4.15 | 1.91 | 3.5 | 1.66 | 3.07 | 1.86 | 3.33 | 1.47 | 2.79 | 1.8 | 3.35 | 1.95 | 3.82 | 1.77 | 3.21
CN(C)Cc1c[nH]c2c(NCCN)c3c(c(NCCN)c12)C(=O)c1ccccc1C3=O | 3.65 | 14.7 | 3.65 | 26.5 | 1.56 | 5.35 | 2.35 | 7.87 | 2.49 | 8.45 | 5.68 | 25.1 | 8.8 | 23.3 | 6.32 | 18.1 | 21.8 | > 66.1 | 1.74 | 6.43
